From ChEMBL document CHEMBL1128720, “N-[(1-butyl-4-piperidinyl)methyl]-3,4dihydro-2H-[1,3]oxazino[3,2- a]indole10-carboxamide hydrochloride: the first potent and selective 5-HT4 receptor antagonist amide with oral activity” (J Med Chem, 1995) come the findings set out here.

The target of assay [1] is 5-hydroxytryptamine receptor 4 (Cavia porcellus, UniProt O70528). Put plainly: Ability to antagonize 5-HT-evoked contractions mediated through 5-hydroxytryptamine 4 receptor activation in the guinea pig distal colon LMMP. The format is tissue-based.
For another assay, the target named is D(2) dopamine receptor (Homo sapiens, UniProt P14416). Put plainly: Binding affinity was determined by standard competitive displacement of [125I]iodosulpride using Dopamine receptor D2 cloned human receptors expressed in CHO cells. A general note: In a radioligand displacement assay an active substance lowers the binding of a labelled ligand.
The nature of assay [2]: Binding affinity was determined against 5-hydroxytryptamine 1D receptor.
Assay [3] addresses T1, 5-hydroxytryptamine receptor 1A (Homo sapiens, UniProt P08908).
T1 sequence (P08908 whole entry): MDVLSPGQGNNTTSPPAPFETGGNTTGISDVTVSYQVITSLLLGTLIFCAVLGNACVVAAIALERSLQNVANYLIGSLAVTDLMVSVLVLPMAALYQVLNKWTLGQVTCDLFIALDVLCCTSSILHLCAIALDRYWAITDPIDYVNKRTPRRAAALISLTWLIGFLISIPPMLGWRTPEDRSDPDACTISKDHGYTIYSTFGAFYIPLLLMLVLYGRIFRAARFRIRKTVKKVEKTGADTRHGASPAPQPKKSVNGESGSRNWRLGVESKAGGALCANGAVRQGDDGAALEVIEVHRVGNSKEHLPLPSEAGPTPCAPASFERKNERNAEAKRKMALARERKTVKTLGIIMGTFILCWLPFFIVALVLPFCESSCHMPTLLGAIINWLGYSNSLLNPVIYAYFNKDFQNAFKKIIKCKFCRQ
Put plainly: Binding affinity was determined against 5-hydroxytryptamine 1A receptor. Details: species or system Cavia porcellus.

Another assay has as its target Histamine H1 receptor (Cavia porcellus, UniProt P31389). Put plainly: Binding affinity was determined against H1 receptor.
Assay [4] in a line: (§1) Binding affinity was determined against 5-hydroxytryptamine 2A receptor. Further details: species or system Cavia porcellus.
For assay [5], the target named is 5-hydroxytryptamine receptor 2A (Homo sapiens, UniProt P28223). Described as §1. Further details: species or system Cavia porcellus.
The next assay has as its target D(3) dopamine receptor (Homo sapiens, UniProt P35462). Put plainly: Binding affinity was determined against Dopamine receptor D3 determined using cloned human receptors expressed in CHO cells radiolabeled with [125I]- iodosulpride. The format is cell-based.

5-hydroxytryptamine receptor 4, sequence (O70528 whole entry): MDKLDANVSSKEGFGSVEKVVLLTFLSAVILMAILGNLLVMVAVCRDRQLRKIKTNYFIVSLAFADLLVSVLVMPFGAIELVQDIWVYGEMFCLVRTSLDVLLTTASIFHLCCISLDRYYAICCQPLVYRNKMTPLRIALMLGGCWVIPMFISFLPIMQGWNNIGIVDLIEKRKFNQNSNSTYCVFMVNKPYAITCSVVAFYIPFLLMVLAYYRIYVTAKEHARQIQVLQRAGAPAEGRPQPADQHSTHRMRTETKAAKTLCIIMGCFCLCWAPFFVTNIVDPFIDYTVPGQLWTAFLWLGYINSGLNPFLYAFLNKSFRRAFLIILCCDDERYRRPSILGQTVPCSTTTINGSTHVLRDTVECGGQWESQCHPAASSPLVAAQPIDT
5-hydroxytryptamine receptor 2A, sequence (P28223 whole entry): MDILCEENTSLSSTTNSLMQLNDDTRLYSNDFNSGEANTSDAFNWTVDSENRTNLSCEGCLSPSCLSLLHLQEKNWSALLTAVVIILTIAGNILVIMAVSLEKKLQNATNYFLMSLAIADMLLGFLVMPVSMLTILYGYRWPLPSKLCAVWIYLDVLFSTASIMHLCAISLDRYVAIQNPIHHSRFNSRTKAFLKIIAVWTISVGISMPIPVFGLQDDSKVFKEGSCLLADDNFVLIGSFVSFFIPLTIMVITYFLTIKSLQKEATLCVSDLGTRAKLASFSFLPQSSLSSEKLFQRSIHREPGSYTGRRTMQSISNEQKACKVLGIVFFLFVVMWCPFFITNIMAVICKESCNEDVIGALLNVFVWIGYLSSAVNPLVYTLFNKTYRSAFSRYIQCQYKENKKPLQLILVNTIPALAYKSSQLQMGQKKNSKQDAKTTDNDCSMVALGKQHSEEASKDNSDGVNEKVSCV
D(3) dopamine receptor, sequence (P35462 whole entry): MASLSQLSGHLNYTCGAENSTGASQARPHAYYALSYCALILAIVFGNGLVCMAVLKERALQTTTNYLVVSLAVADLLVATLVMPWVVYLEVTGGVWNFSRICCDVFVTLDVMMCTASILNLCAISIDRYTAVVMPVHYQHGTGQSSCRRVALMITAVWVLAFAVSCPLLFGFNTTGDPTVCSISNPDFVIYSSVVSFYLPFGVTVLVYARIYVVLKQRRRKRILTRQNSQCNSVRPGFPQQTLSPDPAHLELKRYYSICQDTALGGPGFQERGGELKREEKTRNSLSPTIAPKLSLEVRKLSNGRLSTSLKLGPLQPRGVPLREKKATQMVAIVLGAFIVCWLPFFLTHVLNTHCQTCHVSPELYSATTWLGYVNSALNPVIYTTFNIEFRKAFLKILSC
Histamine H1 receptor, sequence (P31389 whole entry): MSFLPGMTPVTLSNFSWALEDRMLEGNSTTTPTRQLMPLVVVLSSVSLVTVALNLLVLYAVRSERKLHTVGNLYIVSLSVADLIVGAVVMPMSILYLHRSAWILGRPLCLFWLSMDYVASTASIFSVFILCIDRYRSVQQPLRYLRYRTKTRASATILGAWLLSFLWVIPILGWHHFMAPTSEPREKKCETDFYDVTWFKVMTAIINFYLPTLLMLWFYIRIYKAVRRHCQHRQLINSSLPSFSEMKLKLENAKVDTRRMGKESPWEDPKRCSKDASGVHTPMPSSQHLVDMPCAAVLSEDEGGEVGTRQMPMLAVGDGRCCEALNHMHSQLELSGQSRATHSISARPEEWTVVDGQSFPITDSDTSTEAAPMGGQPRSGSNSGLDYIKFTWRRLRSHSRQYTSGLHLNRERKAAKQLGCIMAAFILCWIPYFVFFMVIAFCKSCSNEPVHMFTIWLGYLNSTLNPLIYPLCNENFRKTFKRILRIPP
D(2) dopamine receptor, sequence (P14416 whole entry): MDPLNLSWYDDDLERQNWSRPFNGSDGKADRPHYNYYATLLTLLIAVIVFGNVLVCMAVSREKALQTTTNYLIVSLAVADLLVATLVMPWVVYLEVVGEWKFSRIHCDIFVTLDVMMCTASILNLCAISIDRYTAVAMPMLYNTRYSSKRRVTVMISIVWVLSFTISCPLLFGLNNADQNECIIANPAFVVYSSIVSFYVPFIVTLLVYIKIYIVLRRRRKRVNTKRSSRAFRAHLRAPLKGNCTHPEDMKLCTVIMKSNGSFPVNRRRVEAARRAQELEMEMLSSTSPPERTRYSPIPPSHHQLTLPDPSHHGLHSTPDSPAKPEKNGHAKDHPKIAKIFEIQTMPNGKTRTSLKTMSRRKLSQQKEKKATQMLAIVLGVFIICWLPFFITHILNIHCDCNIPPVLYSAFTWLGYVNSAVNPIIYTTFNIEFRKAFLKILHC

The IC50 is the midpoint of a concentration-inhibition curve. Low values mean greater potency, high ones weaker potency. On to `CCCCN1CCC(CNC(=O)c2c3n(c4ccccc24)CCO3)CC1`, for which the midpoint of inhibition in assay [1], the IC50, lay at 15.8 nM.

The term Ki denotes the equilibrium dissociation constant of an inhibitor or competing ligand from its target. A high value points to lower affinity. For the molecule `CCCCN1CCC(CNC(=O)c2c3n(c4ccccc24)CCCO3)CC1` [PIBOSEROD], the inhibition constant (Ki) on D(2) dopamine receptor was > 1000 nM; in assay [2], > 10000 nM; in assay [3] it was > 10000 nM; on Histamine H1 receptor, > 1000 nM; in assay [5], > 1000 nM; at D(3) dopamine receptor, > 1000 nM. For the same molecule, in assay [4], the Log Ki was > -6.

On to `CCCCN1CCC(CNC(=O)c2c[nH]c3ccccc23)CC1`, for which it took 200 nM to reach half-maximal inhibition in assay [1] (IC50).

As for `CCCCN1CCC(COC(=O)c2c(OC)[nH]c3ccccc23)CC1`, the IC50 in assay [1] is 0.1 nM.

In assay [1], `CCCCN1CCC(CNC(=O)c2c3n(c4ccccc24)CCCCO3)CC1` gave an IC50 of 7.94 nM.

For the molecule `CCCCN1CCC(CNC(=O)c2c(OC)[nH]c3ccccc23)CC1`, the IC50 in assay [1] was 79.4 nM.
